Literature values as cited in patent publication US12208104B2, “Pharmaceutical compositions suitable for articular delivery and use thereof in treatment of joint pain” (TAIWAN LIPOSOME CO., LTD., priority 2018, dated 2025).

Test system: cartilage
Settings: repeated intra-articular injections

Structure (SMILES)	cartilage damage
C[C@@H]1C[C@H]2[C@@H]3CCC4=CC(=O)C=C[C@]4(C)[C@@]3(F)[C@@H](O)C[C@]2(C)[C@@]1(O)C(=O)CO [dexamethasone]	cartilage damage has been reported
C[C@]12C=CC(=O)C=C1CC[C@H]1[C@@H]3C[C@@H](O)[C@](O)(C(=O)CO)[C@@]3(C)C[C@H](O)[C@@]12F [triamcinolone]	cartilage damage has been reported
